# Source: patent US5284856A, “Oncogene-encoded kinases inhibition using 4-H-1-benzopyran-4-one derivatives” (Hoechst Aktiengesellschaft, priority 1988, dated 1994)
# Structures can show the parent of a compound that is named as a salt.
# Tested on: T1, cAMP-dependent protein kinase
# T1 construct: purchased Sigma Chemical Co., St. Louis, Mo., USA
# Assay: 3',5'-cAMP-dependent protein kinase inhibition (catalytic sub-unit, kemptide substrate)
# Assay type: biochemical
# Settings: 45 μg/ml inhibitor, 40 μM ATP, 15 minutes at 30° C., pH 6.9; hydrochloride
# Protocol: Assay for 3', 5'-cAMP-Dependent Protein Kinase Inhibition
# The catalytic sub-unit of cAMP-dependent protein kinase (Sigma) was reconstituted as described by Sigma (Sigma Chemical Co., St. Louis, Mo., USA). The enzyme activity was measured with kemptide (Sigma) (Leu-Arg-Arg-Ala-Ser-Leu-Gly) as the substrate. The inhibitor was preincubated with the enzyme, substrate (190 μM), Mg^2+ (5 mM), 0.25 mg/ml of BSA and 3.75 mM of mercaptoethanol in 50 mM of MOPA (4-morpholinopropanesulfonic acid), pH 6.9. The reaction was initiated by adding γ-^32 P ATP (40 μM). After 15 minutes at 30° C., an aliquot amount was transferred to p81 ion exchange paper (2×2 cm; Whatman Paper Ltd., Great Britain), the paper was immersed in 75 mM H3 PO4, washed and dried, and the incorporation of ^32 P was determined by means of a liquid scintillation counter.
row,Compound,% inhibition of cAMP-dependent protein kinase at an inhibitor concentration of 45 μg/ml
1,"CN1CC[C@H](c2c(O)cc(O)c3c(=O)cc(-c4ccccc4)oc23)[C@H](O)C1 (single isomer, unassigned) [phenyl HCl (+), (+)-cis-5,7-dihydroxy-2-phenyl-8-[4-(3-hydroxy-1-methyl)piperidinyl]-4H-1-benzopyran-4-one hydrochloride]",13%
2,"CN1CC[C@H](c2c(O)cc(O)c3c(=O)cc(-c4ccccc4)oc23)[C@H](O)C1 (single isomer, unassigned) [phenyl HCl (-), (-)-cis-5,7-dihydroxy-2-phenyl-8-[4-(3-hydroxy-1-methyl)piperidinyl]-4H-1-benzopyran-4-one hydrochloride]",46%

# Same assay, conditions: pH 6.9, 45 μg/ml inhibitor, 40 μM ATP, 15 minutes at 30° C., read-out: % inhibition of cAMP-dependent protein kinase at an inhibitor concentration of 45 μg/ml
row,Compound,inhibition at 45 µg/mL
1,CN1CCC(c2c(O)cc(O)c3c(=O)cc(-c4ccccc4Br)oc23)C(O)C1 (racemic) [2-bromophenyl (±)],63%
2,CN1CCC(c2c(O)cc(O)c3c(=O)cc(-c4ccccc4F)oc23)C(O)C1 (racemic) [2-fluorophenyl HCl (±)],0%
3,CN1CCC(c2c(O)cc(O)c3c(=O)cc(-c4ccc(-c5ccccc5)cc4)oc23)C(O)C1 (racemic) [4-biphenyl HCl (±)],37%
4,CN1CCC(c2c(O)cc(O)c3c(=O)cc(-c4ccc(Br)cc4)oc23)C(O)C1 (racemic) [4-bromophenyl HCl (±)],65%
5,CN1CCC(c2c(O)cc(O)c3c(=O)cc(-c4ccc(Cl)cc4)oc23)C(O)C1 (racemic) [4-chlorophenyl HCl (±)],37%
6,CN1CCC(c2c(O)cc(O)c3c(=O)cc(-c4ccc(F)cc4)oc23)C(O)C1 (racemic) [4-fluorophenyl HCl (±)],25%
7,CN1CCC(c2c(O)cc(O)c3c(=O)cc(Cc4ccccc4Cl)oc23)C(O)C1 (racemic) [(2-chlorophenyl)methyl HCl (±)],69%
8,CCc1cc(=O)c2c(O)cc(O)c(C3CCN(C)CC3O)c2o1 (racemic) [ethyl HCl (±)],0%
9,CCCc1cc(=O)c2c(O)cc(O)c(C3CCN(C)CC3O)c2o1 (racemic) [n-propyl HCl (±)],0%
10,"CN1CC[C@H](c2c(O)cc(O)c3c(=O)cc(-c4ccccc4Cl)oc23)[C@H](O)C1 (relative stereo) [2-chlorophenyl HCl (±), (±)-cis-5,7-dihydroxy-2-(2-chlorophenyl)-8-[4-(3-hydroxy-1-methyl)piperidinyl]-4H-1-benzopyran-4-one hydrochloride]",29%
11,"CN1CC[C@H](c2c(O)cc(O)c3c(=O)cc(-c4ccc5ccccc5c4)oc23)[C@H](O)C1 (relative stereo) [2-naphthyl HCl (±), (±)-cis-5,7-dihydroxy-2-(2-naphthyl)-8-[4-(3-hydroxy-1-methyl)piperidinyl]-4H-1-benzopyran-4-one hydrochloride]",0%
12,"CN1CC[C@H](c2c(O)cc(O)c3c(=O)cc(-c4ccccn4)oc23)[C@H](O)C1 (relative stereo) [2-pyridyl HCl (±), (±)-cis-5,7-dihydroxy-2-(2-pyridyl)-8-[4-(3-hydroxy-1-methyl)piperidinyl]-4H-1-benzopyran-4-one hydrochloride]",0%
13,"CN1CC[C@H](c2c(O)cc(O)c3c(=O)cc(-c4cccs4)oc23)[C@H](O)C1 (relative stereo) [2-thiophenyl (±), (±)-cis-5,7-dihydroxy-2-(2-thienyl)-8-[4-(3-hydroxy-1-methyl)piperidinyl]-4H-1-benzopyran-4-one]",14%
14,"CN1CC[C@H](c2c(O)cc(O)c3c(=O)cc(-c4cccnc4)oc23)[C@H](O)C1 (relative stereo) [3-pyridyl HCl (±), (±)-cis-5,7-dihydroxy-2-(3-pyridyl)-8-[4-(3-hydroxy-1-methyl)piperidinyl]-4H-1-benzopyran-4-one hydrochloride]",0%
15,"Cc1ccc(-c2cc(=O)c3c(O)cc(O)c([C@H]4CCN(C)C[C@H]4O)c3o2)cc1 (relative stereo) [4-methylphenyl HCl (±), (±)-cis-5,7-dihydroxy-2-(4-methylphenyl)-8-[4-(3-hydroxy-1-methyl)piperidinyl]-4H-1-benzopyran-4-one hydrochloride]",55%
16,"CN1CC[C@H](c2c(O)cc(O)c3c(=O)cc(-c4ccncc4)oc23)[C@H](O)C1 (relative stereo) [4-pyridyl HCl (±), (±)-cis-5,7-dihydroxy-2-(4-pyridyl)-8-[4-(3-hydroxy-1-methyl)piperidinyl]-4H-1-benzopyran-4-one hydrochloride]",12%
17,"CN1CC[C@H](c2c(O)cc(O)c3c(=O)cc(-c4ccccc4)oc23)[C@H](O)C1 (relative stereo) [phenyl HCl (±), (±)-cis-5,7-dihydroxy-2-phenyl-8-[4-(3-hydroxy-1-methyl)piperidinyl]-4H-1-benzopyran-4-one hydrochloride]",48%
18,"CN1CC[C@H](c2c(O)cc(O)c3c(=O)cc(-c4ccccc4Cl)oc23)[C@H](O)C1 (single isomer, unassigned) [2-chlorophenyl HCl (+), (+)-cis-5,7-dihydroxy-2-(2-chlorophenyl)-8-[4-(3-hydroxy-1-methyl)piperidinyl]-4H-1-benzopyran-4-one hydrochloride]",27%
19,"CN1CC[C@H](c2c(O)cc(O)c3c(=O)cc(-c4ccccn4)oc23)[C@H](O)C1 (single isomer, unassigned) [2-pyridyl HCl (-), (-)-cis-5,7-dihydroxy-2-(2-pyridyl)-8-[4-(3-hydroxy-1-methyl)piperidinyl]-4H-1-benzopyran-4-one hydrochloride]",6%
20,"CCCc1cc(=O)c2c(O)cc(O)c(C3CCN(C)CC3O)c2o1 (single isomer, unassigned) [n-propyl HCl (-)]",5%

# Tested on: A 549
# Assay: SRC Tumor Test (implantation under renal capsule of nude mouse), bronchogenic carcinoma A 549
# Assay type: in vivo
# Settings: A 549, 35 mg/kg/day i.v., days 2-15
# Protocol: (§1) Single cell suspensions (from cell culture A 549 or disaggregated human tumor xenografts LXF 529) in Beriplast (Behringwerke AG) were diluted 1:2 with RPMI 1640 supplemented with 15% FCS to a final cell concentration of 10^7 cells/50 μl. This suspension was sucked quickly into 50 μglass capillaries (diameter 1.5 mm), of which the inner walls had been moistered with a thrombin/CaCl2 solution (500 units thrombin in 1 ml 40 mmol CaCl2).
# (§2) After solidification of the cell-fibrin mixture (about 5 min at RT) the fibrin clot has been removed from the glass capillary into a petridish by air pressure. The fibrin clot was cut into 2 mm pieces (≈5×10^5 cells per piece) and the pieces were stored in RPMI 1640 supplemented with 15% FCS until implantation.
# (§3) A single fibrin piece was transferred under the renal capsule of a nude mouse and, subsequently, two perpendicular diameters of the implanted piece were measured by microscope with an ocular micrometer (day 0). The tumor size was calculated according to
# b=diameter perpendicular to a […]
# (§4) On day 21 after implantation the animals were sacrificed, the kidney was exteriorized and the tumor size was measured again. The effectivity of the test drug was calculated from the tumor growth inhibition.
# The relative tumor size VR was calculated according the formula [formula] […]
row,Compound,T/C
1,"CN1CC[C@H](c2c(O)cc(O)c3c(=O)cc(-c4cccc(Br)c4)oc23)[C@H](O)C1 (relative stereo) [Exmp. 17, (±)-cis-5,7-Dihydroxy-2-(3-bromophenyl)-8-[4-(3-hydroxy-1-methyl)piperidinyl]-4H-1-benzopyran-4-one hydrochloride]",70%

# Same assay, conditions: A 549, 100 mg/kg/day p.o., days 2-15
row,Compound,T/C
1,"CN1CC[C@H](c2c(O)cc(O)c3c(=O)cc(-c4cccc(Br)c4)oc23)[C@H](O)C1 (relative stereo) [Exmp. 17, (±)-cis-5,7-Dihydroxy-2-(3-bromophenyl)-8-[4-(3-hydroxy-1-methyl)piperidinyl]-4H-1-benzopyran-4-one hydrochloride]",73%

# Tested on: LXF 529
# Assay: SRC Tumor Test (implantation under renal capsule of nude mouse), bronchogenic carcinoma LXF 529
# Assay type: in vivo, human tumor xenograft in nude mouse
# Settings: LXF 529, 2 mg/kg/day i.v., days 2-15
# Protocol: as §1, §2, §3
# b=diameter perpendicular to a
# The substance was given i.v. or p.o. daily on day 2-15 with the maximal tolerable dose (MTD) and a dose 2/3 of the MTD value according to the pretests. 5 mice/group were used.
# as §4
# The relative tumor size VR was calculated according the formula [formula] Vt =tumor size at the end of experiment (day 21) V0 =tumor size as day of implantation
# Subsequently the median relative tumor size of the treated group (VT) was related to the corresponding median relative tumor size of controls (VC) according to the formula [formula] The statistical significance (p 0.05) of the antitumoral effects was calculated using the Wilcoxon U test.
row,Compound,T/C
1,"CN1CC[C@H](c2c(O)cc(O)c3c(=O)cc(-c4ccccc4Cl)oc23)[C@H](O)C1 (single isomer, unassigned) [Exmp. 9, (-)-cis-5,7-Dihydroxy-2-(2-chlorophenyl)-8-[4-(3-hydroxy-1-methyl)piperidinyl]-4H-1-benzopyran-4-one hydrochloride]",59%

# Same assay, conditions: LXF 529, 4 mg/kg/day i.v., days 2-15
row,Compound,T/C
1,"CN1CC[C@H](c2c(O)cc(O)c3c(=O)cc(-c4ccccc4Cl)oc23)[C@H](O)C1 (single isomer, unassigned) [Exmp. 9, (-)-cis-5,7-Dihydroxy-2-(2-chlorophenyl)-8-[4-(3-hydroxy-1-methyl)piperidinyl]-4H-1-benzopyran-4-one hydrochloride]",51%

# Same assay, conditions: LXF 529, 25 mg/kg/day i.v., days 2-15; n.s. = not significant (P > 0.05)
row,Compound,T/C
1,"CN1CC[C@H](c2c(O)cc(O)c3c(=O)cc(-c4cccc(Br)c4)oc23)[C@H](O)C1 (relative stereo) [Exmp. 17, (±)-cis-5,7-Dihydroxy-2-(3-bromophenyl)-8-[4-(3-hydroxy-1-methyl)piperidinyl]-4H-1-benzopyran-4-one hydrochloride]",81%

# Same assay, conditions: LXF 529, 35 mg/kg/day i.v., days 2-15
row,Compound,T/C
1,"CN1CC[C@H](c2c(O)cc(O)c3c(=O)cc(-c4cccc(Br)c4)oc23)[C@H](O)C1 (relative stereo) [Exmp. 17, (±)-cis-5,7-Dihydroxy-2-(3-bromophenyl)-8-[4-(3-hydroxy-1-methyl)piperidinyl]-4H-1-benzopyran-4-one hydrochloride]",67%

# Same assay, conditions: LXF 529, 100 mg/kg/day i.v., days 2-15; n.s. = not significant (P > 0.05)
row,Compound,T/C
1,"CN1CC[C@H](c2c(O)cc(O)c3c(=O)cc(-c4ccc(O)cc4)oc23)[C@H](O)C1 (relative stereo) [Exmp. 19, (±)-cis-5,7-Dihydroxy-2-(4-hydroxyphenyl)-8-[4-(3-hydroxy-1-methyl)piperidinyl]-4H-1-benzopyran-4-one]",98%

# Same assay, conditions: LXF 529, 150 mg/kg/day i.v., days 2-15
row,Compound,T/C
1,"CN1CC[C@H](c2c(O)cc(O)c3c(=O)cc(-c4ccc(O)cc4)oc23)[C@H](O)C1 (relative stereo) [Exmp. 19, (±)-cis-5,7-Dihydroxy-2-(4-hydroxyphenyl)-8-[4-(3-hydroxy-1-methyl)piperidinyl]-4H-1-benzopyran-4-one]",80%
